In patent US20260285846A1, “REV-ERB AGONISTS FOR TH17-MEDIATED INFLAMMATORY DISORDERS” (UNIVERSITY OF FLORID RESEARCH FOUNDATION, iNCORPORATED, priority 2021, published 2026):

target: REV-ERBα LBD (Homo sapiens, UniProt P20393, DEL324-422); assay: biochemical; settings: FRET assay; 6xHistag-REV-ERBα LBD with FITC-labeled SMRT corepressor peptide; read-out: REVERBα (Agonism of REV-ERBα, EC50)
Outline: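 Serially diluted ligands were incubated 2 h at 4° C, in triplicate, with E. coli-expressed His-REV-ERBα LBD (281-614 Δ324-422 or 381-579; 4 nM), Tb-anti-His (1 nM) and FITC-labelled SMRT peptide (400 nM). EC50 came from sigmoidal fits of the 520/495 nm TR-FRET ratio.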

Sequence of REV-ERBα LBD (P20393 with tags, fused parts or gaps DEL324-422): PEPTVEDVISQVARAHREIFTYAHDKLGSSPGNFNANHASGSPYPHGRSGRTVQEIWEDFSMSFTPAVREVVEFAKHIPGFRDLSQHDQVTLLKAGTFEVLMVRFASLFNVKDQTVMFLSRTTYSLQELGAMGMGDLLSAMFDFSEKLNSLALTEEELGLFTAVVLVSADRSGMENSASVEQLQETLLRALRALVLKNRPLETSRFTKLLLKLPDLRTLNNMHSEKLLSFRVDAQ
Sequence of REV-ERBα LBD (Q9Y618 2335-2356 partner limits assumed): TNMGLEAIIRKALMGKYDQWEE

`CC(NS(=O)(=O)C1CC1)c1cn(CC(C)(C)C)c2cc(-c3ncccc3C3CC3)c(F)cc12` (stereo not drawn) [Compound 60, N-(1-(6-(3-cyclopropylpyridin-2-yl)-5-fluoro-1-neopentyl-1H-indol-3-yl)ethyl)cyclopropanesulfonamide] and `CC(NS(=O)(=O)C1CC1)c1cn(CC(C)(C)C)c2cc(-c3ncccc3F)c(F)cc12` (stereo not drawn) [Compound 59, N-[1-[1-(2,2-dimethylpropyl)-5-fluoro-6-(3-fluoro-2-pyridyl)indol-3-yl]ethyl]cyclopropanesulfonamide] cannot be ordered by EC50: under 100 nM for the first, under 100 nM for the second.

`CC(C)(C)Cn1cc([C@H](NS(=O)(=O)C2CC2)C(F)(F)F)c2cc(F)c(-c3cccnc3C(F)(F)F)cc21` [Compound 8, (S)—N-(2,2,2-trifluoro-1-(5-fluoro-1-neopentyl-6-(2-(trifluoromethyl)pyridin-3-yl)-1H-indol-3-yl)ethyl)cyclopropanesulfonamide] and `CC(C)(C)Cn1cc([C@H](NS(=O)(=O)C2CC2)C(F)(F)F)c2cc(F)c(-c3ncccc3C(F)(F)F)cc21` [Compound 9, (S)—N-(2,2,2-trifluoro-1-(5-fluoro-1-neopentyl-6-(3-(trifluoromethyl)pyridin-2-yl)-1H-indol-3-yl)ethyl)cyclopropanesulfonamide] fall in the same range of EC50: 100 to 1000 nM for the first, 100 to 1000 nM for the second.

`CC(C)(C)Cn1cc([C@H](NS(=O)(=O)C2CC2)C(F)F)c2ccc(-c3ncccc3C(F)(F)F)cc21` [Compound 39, (S)—N-(2,2-difluoro-1-(1-neopentyl-6-(3-(trifluoromethyl)pyridin-2-yl)-1H-indol-3-yl)ethyl)cyclopropanesulfonamide] and `CC(C)(C)Cn1cc([C@H](NS(=O)(=O)C2CC2)C(F)F)c2ccc(-c3ncccc3C(F)F)cc21` [Compound 100, (S)—N-(1-(6-(3-(difluoromethyl)pyridin-2-yl)-1-neopentyl-1H-indol-3-yl)-2,2-difluoroethyl)cyclopropanesulfonamide] cannot be ordered by EC50: under 100 nM for the first, under 100 nM for the second.

`Cc1cnc(-c2cc3c(cc2F)c([C@H](NS(=O)(=O)C2CC2)C(F)F)cn3CC(C)(C)C)c(C(F)(F)F)n1` [Compound 144, (S)—N-(2,2-difluoro-1-(5-fluoro-6-(5-methyl-3-(trifluoromethyl)pyrazin-2-yl)-1-neopentyl-1H-indol-3-yl)ethyl)cyclopropanesulfonamide] and `Cc1cnc(C(F)(F)F)c(-c2cc3c(cc2F)c([C@H](NS(=O)(=O)C2CC2)C(F)F)cn3CC(C)(C)C)c1` [Compound 141, (S)—N-(2,2-difluoro-1-(5-fluoro-6-(5-methyl-2-(trifluoromethyl)pyridin-3-yl)-1-neopentyl-1H-indol-3-yl)ethyl)cyclopropanesulfonamide] cannot be ordered by EC50: under 100 nM for the first, under 100 nM for the second.

`CC(C)(C)Cn1cc([C@H](NS(=O)(=O)C2CC2)C(F)(F)F)c2ccc(-c3cc(F)ccc3C#N)cc21` [Compound 2, (S)—N-(1-(6-(2-cyano-5-fluorophenyl)-1-neopentyl-1H-indol-3-yl)-2,2,2-trifluoroethyl)cyclopropanesulfonamide] and `CC(C)(C)Cn1cc([C@H](NS(=O)(=O)C2CC2)C(F)F)c2ccc(-c3c(C#N)ccnc3C(F)(F)F)cc21` [Compound 52, (S)—N-(1-(6-(4-cyano-2-(trifluoromethyl)pyridin-3-yl)-1-neopentyl-1H-indol-3-yl)-2,2-difluoroethyl)cyclopropanesulfonamide] fall in the same range of EC50: 100 to 1000 nM for the first, 100 to 1000 nM for the second.

`CC(C)(C)Cn1cc([C@H](NS(=O)(=O)C2CC2)C(F)F)c2cc(F)c(-c3ncc(F)cc3C(F)F)cc21` [Compound 134, (S)—N-(1-(6-(3-(difluoromethyl)-5-fluoropyridin-2-yl)-5-fluoro-1-neopentyl-1H-indol-3-yl)-2,2-difluoroethyl)cyclopropanesulfonamide] and `CC(C)(C)Cn1cc([C@H](NS(=O)(=O)C2CC2)C(F)F)c2cc(F)c(-c3ncc(F)cc3C(F)(F)F)cc21` [Compound 56, (S)—N-(2,2-difluoro-1-(5-fluoro-6-(5-fluoro-3-(trifluoromethyl)pyridin-2-yl)-1-neopentyl-1H-indol-3-yl)ethyl)cyclopropanesulfonamide] cannot be ordered by EC50: under 100 nM for the first, under 100 nM for the second.

`O=c1ccc(-c2nc3c(cc2F)c([C@H](NS(=O)(=O)C2CC2)C(F)F)cn3C2CCC2)c(C(F)(F)F)[nH]1` [Compound 175, (S)—N-(1-(1-cyclobutyl-5-fluoro-6-(6-oxo-2-(trifluoromethyl)-1,6-dihydropyridin-3-yl)-1H-pyrrolo[2,3-b]pyridin-3-yl)-2,2-difluoroethyl)cyclopropanesulfonamide] and `O=S(=O)(N[C@@H](c1cn(C2CCC2)c2cc(-c3cc(F)cnc3C(F)(F)F)c(F)cc12)C(F)F)C1CC1` [Compound 149, (S)—N-(1-(1-cyclobutyl-5-fluoro-6-(5-fluoro-2-(trifluoromethyl)pyridin-3-yl)-1H-indol-3-yl)-2,2-difluoroethyl)cyclopropanesulfonamide] cannot be ordered by EC50: under 100 nM for the first, under 100 nM for the second.

`CC(C)(C)Cn1cc([C@H](NS(=O)(=O)C2CC2)C(F)F)c2cc(F)c(-c3c(C#N)cccc3C(F)F)cc21` [Compound 109, N-((1S)-1-(6-(2-cyano-6-(difluoromethyl)phenyl)-5-fluoro-1-neopentyl-1H-indol-3-yl)-2,2-difluoroethyl)cyclopropanesulfonamide] and `CC(C)(C)Cn1cc([C@H](NS(=O)(=O)C2CC2)C(F)F)c2cc(F)c(-c3cc(F)cnc3C#N)cc21` [Compound 96, (S)—N-(1-(6-(2-cyano-5-fluoropyridin-3-yl)-5-fluoro-1-neopentyl-1H-indol-3-yl)-2,2-difluoroethyl)cyclopropanesulfonamide] cannot be ordered by EC50: under 100 nM for the first, under 100 nM for the second.

First: CC(C)(C)Cn1cc([C@H](NS(=O)(=O)C2CC2)C(F)F)c2ccc(-c3c(C(F)(F)F)ccc[n+]3[O-])cc21 [Compound 106, (S)-2-(3-(1-(cyclopropanesulfonamido)-2,2-difluoroethyl)-1-neopentyl-1H-indol-6-yl)-3-(trifluoromethyl)pyridine 1-oxide]
Second: Cc1ncnc(C(F)F)c1-c1ccc2c([C@H](NS(=O)(=O)C3CC3)C(F)F)cn(CC(C)(C)C)c2c1 [Compound 120, (S)—N-(1-(6-(4-(difluoromethyl)-6-methylpyrimidin-5-yl)-1-neopentyl-1H-indol-3-yl)-2,2-difluoroethyl)cyclopropanesulfonamide]
The EC50 of the first is higher: 100 to 1000 nM for the first, under 100 nM for the second.

First: Cc1ccnc(C(F)(F)F)c1-c1cc2c(cc1F)c([C@H](NS(=O)(=O)C1CC1)C(F)F)cn2CC(C)(C)C [Compound 129, N-((1S)-2,2-difluoro-1-(5-fluoro-6-(4-methyl-2-(trifluoromethyl)pyridin-3-yl)-1-neopentyl-1H-indol-3-yl)ethyl)cyclopropanesulfonamide]
Second: CC(NS(=O)(=O)C1CC1)c1cn(CC(C)(C)C)c2cc(-c3ccc(F)cn3)c(F)cc12 (stereo not drawn) [Compound 64, N-(1-(5-fluoro-6-(5-fluoropyridin-2-yl)-1-neopentyl-1H-indol-3-yl)ethyl)cyclopropanesulfonamide]
The EC50 of the first is lower: under 100 nM for the first, 100 to 1000 nM for the second.

Compared with `N#Cc1nccc(C(F)(F)F)c1-c1cc2c(cc1F)c([C@H](NS(=O)(=O)C1CC1)C(F)F)cn2C1CCC1` [Compound 159, N-((1S)-1-(6-(2-cyano-4-(trifluoromethyl)pyridin-3-yl)-1-cyclobutyl-5-fluoro-1H-indol-3-yl)-2,2-difluoroethyl)cyclopropanesulfonamide], `O=S(=O)(N[C@@H](c1cn(C2CNC2)c2cc(-c3ccc(F)cc3C(F)(F)F)c(F)cc12)C(F)F)C1CC1` [Compound 152, (S)—N-(1-(1-(azetidin-3-yl)-5-fluoro-6-(4-fluoro-2-(trifluoromethyl)phenyl)-1H-indol-3-yl)-2,2-difluoroethyl)cyclopropanesulfonamide] is higher in EC50: under 100 nM for the first, over 1000 nM for the second.

Compared with `CC(NS(=O)(=O)C1CC1)c1cn(CC(C)(C)C)c2cc(-c3ncccc3C#N)c(F)cc12` (single isomer, unassigned) [Compound 20, (S or R)—N-(1-(6-(3-cyanopyridin-2-yl)-5-fluoro-1-neopentyl-1H-indol-3-yl)ethyl)cyclopropanesulfonamide], `CC(NS(=O)(=O)C1CC1)c1cn(CC(C)(C)C)c2cc(-c3ncc(F)cc3C#N)c(F)cc12` (stereo not drawn) [Compound 63, N-(1-(6-(3-cyano-5-fluoropyridin-2-yl)-5-fluoro-1-neopentyl-1H-indol-3-yl)ethyl)cyclopropanesulfonamide] is lower in EC50: 100 to 1000 nM for the first, under 100 nM for the second. The second is the more potent here.

`O=S(=O)(N[C@@H](c1cn(C2CC(F)C2)c2cc(-c3cc(F)cnc3C(F)(F)F)c(F)cc12)C(F)F)C1CC1` (stereo partly drawn) [Compound 182, (S)—N-(2,2-difluoro-1-(5-fluoro-6-(5-fluoro-2-(trifluoromethyl)pyridin-3-yl)-1-(3-fluorocyclobutyl)-1H-indol-3-yl)ethyl)cyclopropanesulfonamide] and `CC(NS(=O)(=O)C1CC1)c1cn(CC(C)(C)C)c2cc(-c3cc(F)cnc3C#N)c(F)cc12` (stereo not drawn) [Compound 67, N-(1-(6-(2-cyano-5-fluoropyridin-3-yl)-5-fluoro-1-neopentyl-1H-indol-3-yl)ethyl)cyclopropanesulfonamide] cannot be ordered by EC50: under 100 nM for the first, under 100 nM for the second.

First: CC(NS(=O)(=O)C1CC1)c1cn(CC(C)(C)C)c2cc(-c3ccc(C#N)nc3)c(F)cc12 (stereo not drawn) [Compound 69, N-(1-(6-(6-cyanopyridin-3-yl)-5-fluoro-1-neopentyl-1H-indol-3-yl)ethyl)cyclopropanesulfonamide]
Second: Cc1ncccc1-c1cc2c(cc1F)c(C(C)NS(=O)(=O)C1CC1)cn2CC(C)(C)C (stereo not drawn) [Compound 36, N-(1-(5-fluoro-6-(2-methylpyridin-3-yl)-1-neopentyl-1H-indol-3-yl)ethyl)cyclopropanesulfonamide]
The EC50 of the first is higher: 100 to 1000 nM for the first, under 100 nM for the second. The second is the more potent here.

Compared with `Cc1ccccc1-c1ccc2c([C@H](NS(=O)(=O)C3CC(F)(F)C3)C(F)F)cn(CC(C)(C)C)c2c1` [Compound 30, (S)—N-(2,2-difluoro-1-(1-neopentyl-6-(o-tolyl)-1H-indol-3-yl)ethyl)-3,3-difluorocyclobutane-1-sulfonamide], `CN(C)S(=O)(=O)N[C@@H](c1cn(CC(C)(C)C)c2cc(-c3ccccc3C(F)(F)F)c(F)cc12)C(F)F` [Compound 54] is lower in EC50: 100 to 1000 nM for the first, under 100 nM for the second.
